Laboratory results taken from US8815577B2, “Assay electrode having immobilized lipid/protein layers, methods of making the same and methods of using the same for luminescence test measurements” (Meso Scale Technologies, LLC, priority 2001, dated 2014).

Assays:
[1] = system: EGFR in A431 cells; experiment: Measurement of EGFR activation dependent binding events (prophetic); type: cell-based; settings: membrane fragments of EGF-activated A431 cells
Text: Activation of the EGFR leads to autophosphorylation of EGFR followed by the sequential binding of shc to EGFR and grb-2 to shc. The cells are lysed as described in Example 1.2 to form cell membrane fragments (and, preferably, purified by centrifugation). The cell membrane fragments are immobilized on carbon electrodes integrated into the multi-well plates by passive adsorption (as described in Example 1.3) or specific binding to a capture reagent immobilized on the electrode (e.g., wheat germ agglutinin, anti-EGFR, or another antibody specific for a membrane component, preferably, an epitope found on the cytoplasmic side). The immobilized membrane fragments are treated with a buffered solution containing an STAG-labeled antibody directed against shc or grb-1. In an alternate protocol, the membranes and antibody are premixed prior to addition of the membranes to the wells. A buffered tripropylamine solution is introduced into the well and ECL is induced and measured as described in Example 1.4.

[2] = system: EGFR in A431 cells; experiment: Measuring of EGFR activation dependent phosphorylation (prophetic); type: cell-based; settings: membrane fragments of EGF-activated A431 cells
Text: Activation of EGFR leads to its autophosphorylation. The cells are lysed as described in Example 1.2 to form cell membrane fragments (and, preferably, purified by centrifugation). The cell membrane fragments are immobilized on carbon electrodes integrated into the multi-well plates by passive adsorption or specific binding to a capture reagent previously immobilized on the electrode (e.g., wheat germ agglutinin, anti-EGFR, or another antibody specific for a membrane component, preferably, an epitope found on the cytoplasmic side) (as described in Example 1.3). The immobilized membrane fragments are treated with a buffered solution containing a STAG-labeled anti-phosphotyrosine antibody. In an alternate protocol, the membranes and antibody are premixed prior to addition of the membranes to the wells. A buffered tripropylamine solution is introduced to the well and ECL is induced and measured as described in Example 1.4.

[3] = system: tyrosine phosphatase activity / phosphotyrosine content in U2-OS cells; experiment: Cellular phosphotyrosine content in fixed U2-OS cells grown on carbon electrode, ECL detection (tyrosine phosphatase inhibition); type: cell-based; settings: 1 mM, 30 minute incubation
Description: U2-OS cells were grown in non-plasma treated Multi-Array plates using the growth conditions recommended by the American Type Culture Collection (ATCC reference number HTB-96). The plates were partially sterilized beforehand by illumination with a high energy UV light (Strata Linker Model 2400, Stratagene) set to deliver 9999 joules to the plate surface over the course of 5 minutes. Approximately 10,000 trypsinized cells were dispensed to each well of the 96 well plate in 100 μl of tissue culture media (see ATCC reference above) and incubated overnight in a cell culture incubator (at 37° C. in a humidified atmosphere containing 5% CO2) to promote attachment of the cells to the electrode surface.
Per-Vanadate, a tyrosine phosphatase inhibitor was added to a some of the wells to give a final concentration of 1 mM in those wells. […]
Phosphotyrosine containing proteins were detected by incubating the wells for one hour in 90 μl of PBS/FBS containing an anti-phosphotyrosine monoclonal antibody (100 ng/mL) and an anti-mouse secondary antibody (200 ng/mL) that was labeled with ruthenium-tris-bipyridine (ORI-TAG NHS Ester, IGEN International). […] ECL Assay Buffer was added (150 μl of OriGlo Plus, IGEN International) and the plate was analyzed using a Sector HTS instrument.

[4] = target: melanocortin 5 receptor (MC5) (Homo sapiens, UniProt P33032); settings: at the higher concentrations
Chain of melanocortin 5 receptor (MC5) (P33032 whole entry): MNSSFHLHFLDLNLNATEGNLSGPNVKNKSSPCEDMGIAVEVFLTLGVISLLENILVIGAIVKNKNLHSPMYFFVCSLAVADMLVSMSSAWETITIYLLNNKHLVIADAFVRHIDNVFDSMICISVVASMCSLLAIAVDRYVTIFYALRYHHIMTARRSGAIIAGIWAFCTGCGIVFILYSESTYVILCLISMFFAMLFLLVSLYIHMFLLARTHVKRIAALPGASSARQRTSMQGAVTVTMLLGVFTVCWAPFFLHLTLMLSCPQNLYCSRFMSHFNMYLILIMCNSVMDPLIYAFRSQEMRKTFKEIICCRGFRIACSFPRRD
Description: The membrane fragments came from HEK-293 cells that were transformed to express MC5.
Pure PHA-E was passively adsorbed onto the working electrode of plasma-treated Multi-Array 384-well plates by dispensing PHA-E (10 pmol per well) in PBS (5 μL per well) into the wells of the plate. Plates were sealed and incubated for 1 h at ambient temperature. Following the incubation, 3% BSA blocking solution was added (65 μL per well) and the plates were sealed and incubated for 1 h at room temperature. Plates were washed 4 times with PBS and dried. MC5 containing membrane fragments were immobilized in the plates using the procedure described in Example 2.3.1 except that in this case the immobilization occurred via lectin-sugar interactions.
In this Example, MC5 containing membrane fragments were immobilized on the electrode surface of plasma treated Multi-Array 96 well plates (Meso Scale Discovery) by capture on a passively adsorbed layer of pure Pokeweed Mitogen according to an immobilization protocol analogous to that described in the Example 2.3.2. […] The fluid in the wells was then removed and 150 μL of a buffered detergent-free solution of tripropylamine (MSD Assay Buffer T, surfactant free, Meso Scale Discovery) was added. ECL from the wells was measured using a Sector HTS plate reader.

EGF: epidermal growth factor, ligand of EGFR (NSDSECPLSHDGYCLHDGVCMYIEALDKYACNCVVGYIGERCQYRDLKWWELR; not fully specified; Epidermal growth factor; UniProt P01133 971-1023, looked up)
ECL signal (STAG-labeled antibody against shc or grb-1) versus control A431 cells not exposed to EGF [1]: greater | ECL signal (STAG-labeled anti-phosphotyrosine antibody) versus control A431 cells not exposed to EGF [2]: greater

Per-vanadate
ECL signal after subtraction of background, relative to untreated cells [3]: more than three times higher | Average ECL signal (anti-phosphotyrosine antibody) ([3]; n=4): 7690.0

[Nle4,D-Phe7]-α-melanocyte-stimulating hormone [NDP-α-MSH]
inhibition of the binding of NDP-α-MSH-TAG to MC5 [4]: almost complete
